According to PubChem BioAssay (NCI):
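Following 48 hours of exposure in 96-well plates, responses at five concentrations were used to interpolate endpoints linearly. GI50 marks 50% less growth. TGI denotes the concentration required for complete inhibition of growth.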

Key:
Assay in all cases: NCI-60 cell line screen, 48 h
ACHN renal = test system: ACHN renal
BT-549 breast = test system: BT-549 breast
CCRF-CEM leukemia = test system: CCRF-CEM leukemia
EKVX NSCLC = test system: EKVX NSCLC
KM12 colon = test system: KM12 colon
MOLT-4 leukemia = test system: MOLT-4 leukemia
SK-MEL-2 melanoma = test system: SK-MEL-2 melanoma
SK-MEL-28 melanoma = test system: SK-MEL-28 melanoma
SN12C renal = test system: SN12C renal
SNB-19 CNS = test system: SNB-19 CNS

`Cc1nc2sc(C(=O)Nc3cccc(Br)c3)c(N)c2cc1C(O)c1ccccc1` (configuration not stated) showed a GI50 (ACHN renal) of 768 nM, a TGI (ACHN renal) of 14700 nM and a GI50 (BT-549 breast) of 1750 nM. The TGI (BT-549 breast) was 19.9 µM, the GI50 (CCRF-CEM leukemia) was 413 nM and the TGI (CCRF-CEM leukemia) was > 43200 nM. The GI50 (EKVX NSCLC) was 1200 nM, the TGI (EKVX NSCLC) was 21 µM and the GI50 (KM12 colon) was 689 nM. For the same molecule, the TGI (KM12 colon) was 12.6 µM, the GI50 (MOLT-4 leukemia) was 580 nM and the TGI (MOLT-4 leukemia) was > 100 µM. It also gave a GI50 (SK-MEL-2 melanoma) of 1770 nM, a TGI (SK-MEL-2 melanoma) of 26.4 µM and a GI50 (SK-MEL-28 melanoma) of 4610 nM. For the same molecule, the TGI (SK-MEL-28 melanoma) was 23.7 µM, the GI50 (SN12C renal) was 894 nM and the TGI (SN12C renal) was 13300 nM. The GI50 (SNB-19 CNS) was 1480 nM and the TGI (SNB-19 CNS) was 18.9 µM.
`C/C(=C\c1ccn(-c2ccc(N)cc2F)n1)[C@@H]1C[C@@H]2O[C@]2(C)CCC[C@H](C)[C@H](O)[C@@H](C)C(=O)C(C)(C)[C@@H](O)CC(=O)O1` was tested, and the GI50 (ACHN renal) was 202 nM, the TGI (ACHN renal) was > 50000 nM and the GI50 (BT-549 breast) was 94.3 nM. The TGI (BT-549 breast) was > 50 µM, the GI50 (CCRF-CEM leukemia) was 19.7 nM and the TGI (CCRF-CEM leukemia) was > 50000 nM. The GI50 (EKVX NSCLC) was 360 nM, the TGI (EKVX NSCLC) was > 50 µM and the GI50 (KM12 colon) was 15.6 nM. The TGI (KM12 colon) was > 50 µM, the GI50 (MOLT-4 leukemia) was 28.6 nM and the TGI (MOLT-4 leukemia) was > 21.8 µM. The GI50 (SK-MEL-2 melanoma) was 51.8 nM, the TGI (SK-MEL-2 melanoma) was > 50 µM and the GI50 (SK-MEL-28 melanoma) was 1050 nM. For the same molecule, the TGI (SK-MEL-28 melanoma) was > 50 µM, the GI50 (SN12C renal) was 76.8 nM and the TGI (SN12C renal) was > 50000 nM. The GI50 (SNB-19 CNS) was 242 nM and the TGI (SNB-19 CNS) was > 50 µM.
For `COc1cnc2c(c1)C(=O)c1c-2n(CCCNC(C)C)c(=O)c2cc([N+](=O)[O-])ccc12`, the GI50 (ACHN renal) was 26.7 nM, the TGI (ACHN renal) was 121 nM and the GI50 (BT-549 breast) was 107 nM. The TGI (BT-549 breast) was 0.314 µM, the GI50 (CCRF-CEM leukemia) was 29 nM and the TGI (CCRF-CEM leukemia) was 658 nM. It also gave a GI50 (EKVX NSCLC) of 134 nM, a TGI (EKVX NSCLC) of 0.706 µM and a GI50 (KM12 colon) of 221 nM. It also gave a TGI (KM12 colon) of 0.981 µM, a GI50 (MOLT-4 leukemia) of 22.3 nM and a TGI (MOLT-4 leukemia) of 0.0941 µM. The GI50 (SK-MEL-2 melanoma) was 195 nM, the TGI (SK-MEL-2 melanoma) was 0.406 µM and the GI50 (SK-MEL-28 melanoma) was 121 nM. For the same molecule, the TGI (SK-MEL-28 melanoma) was 0.351 µM, the GI50 (SN12C renal) was 39.3 nM and the TGI (SN12C renal) was 438 nM. It also gave a GI50 (SNB-19 CNS) of 42.3 nM and a TGI (SNB-19 CNS) of 0.896 µM.
For `COc1cc2c3c(n(CCCN4CCCC(O)C4)c(=O)c2cc1OC)-c1cc2c(cc1C3=O)OCO2` (configuration not stated), the GI50 (ACHN renal) was < 5 nM, the TGI (ACHN renal) was 320 nM and the GI50 (BT-549 breast) was 898 nM. It also gave a TGI (BT-549 breast) of 3.21 µM, a GI50 (CCRF-CEM leukemia) of 7.38 nM and a TGI (CCRF-CEM leukemia) of 278 nM. For the same molecule, the GI50 (EKVX NSCLC) was 1260 nM, the TGI (EKVX NSCLC) was 2.54 µM and the GI50 (KM12 colon) was 333 nM. For the same molecule, the TGI (KM12 colon) was 1.49 µM, the GI50 (MOLT-4 leukemia) was < 5 nM and the TGI (MOLT-4 leukemia) was 0.678 µM. For the same molecule, the GI50 (SK-MEL-2 melanoma) was 2680 nM, the TGI (SK-MEL-2 melanoma) was 28.4 µM and the GI50 (SK-MEL-28 melanoma) was 885 nM. For the same molecule, the TGI (SK-MEL-28 melanoma) was 2.28 µM, the GI50 (SN12C renal) was 162 nM and the TGI (SN12C renal) was 964 nM. It also gave a GI50 (SNB-19 CNS) of 600 nM and a TGI (SNB-19 CNS) of 10.5 µM.
With `CC1=CC(=O)c2ccc(C)cc2C1=O` the TGI (ACHN renal) was 21000 nM, the TGI (BT-549 breast) was 25 µM and the TGI (CCRF-CEM leukemia) was 12400 nM. The TGI (EKVX NSCLC) was 23.9 µM, the TGI (KM12 colon) was 19.8 µM and the TGI (MOLT-4 leukemia) was 6.24 µM. For the same molecule, the TGI (SK-MEL-2 melanoma) was 44.3 µM, the TGI (SK-MEL-28 melanoma) was 22.7 µM and the TGI (SN12C renal) was 36600 nM. The TGI (SNB-19 CNS) was 30 µM.
Molecule `CC[CH2][Sn]([CH2]CC)([O]C(=O)Cc1ccc(F)cc1)[O][Sn]([CH2]CC)([CH2]CC)[O]C(=O)Cc1ccc(F)cc1` has a GI50 (ACHN renal) of 209 nM, a TGI (ACHN renal) of 552 nM and a GI50 (BT-549 breast) of 256 nM. For the same molecule, the TGI (BT-549 breast) was 0.92 µM, the TGI (CCRF-CEM leukemia) was 1120 nM and the GI50 (EKVX NSCLC) was 569 nM. For the same molecule, the TGI (EKVX NSCLC) was 1.99 µM, the GI50 (KM12 colon) was 702 nM and the TGI (KM12 colon) was 2.06 µM. For the same molecule, the GI50 (MOLT-4 leukemia) was 61.4 nM, the TGI (MOLT-4 leukemia) was 9.15 µM and the GI50 (SK-MEL-2 melanoma) was 115 nM. It also gave a TGI (SK-MEL-2 melanoma) of 0.393 µM, a GI50 (SK-MEL-28 melanoma) of 157 nM and a TGI (SK-MEL-28 melanoma) of 0.446 µM. It also gave a GI50 (SN12C renal) of 262 nM, a TGI (SN12C renal) of 1000 nM and a GI50 (SNB-19 CNS) of 443 nM. It also gave a TGI (SNB-19 CNS) of 1.35 µM.
With `C=C1C(=O)O[C@H]2[C@H]1CC/C(COC(=O)NCc1cc(OC)cc(OC)c1)=C\CC[C@@]1(C)O[C@@H]21` the GI50 (ACHN renal) was 1290 nM, the TGI (ACHN renal) was 2800 nM and the GI50 (BT-549 breast) was 1570 nM. For the same molecule, the TGI (BT-549 breast) was 3.07 µM, the GI50 (CCRF-CEM leukemia) was 476 nM and the TGI (CCRF-CEM leukemia) was 4360 nM. For the same molecule, the GI50 (EKVX NSCLC) was 2060 nM, the TGI (EKVX NSCLC) was 6.6 µM and the GI50 (KM12 colon) was 2800 nM. For the same molecule, the TGI (KM12 colon) was 11 µM, the GI50 (MOLT-4 leukemia) was 2000 nM and the TGI (MOLT-4 leukemia) was 5.55 µM. The GI50 (SK-MEL-2 melanoma) was 1660 nM, the TGI (SK-MEL-2 melanoma) was 3.54 µM and the GI50 (SK-MEL-28 melanoma) was 1470 nM. It also gave a TGI (SK-MEL-28 melanoma) of 3.54 µM, a GI50 (SNB-19 CNS) of 5320 nM and a TGI (SNB-19 CNS) of 22.2 µM.
